From publication PMC8881077 (Journal of Enzyme Inhibition and Medicinal Chemistry, 2022) come the findings set out here.

In one test the target is T1, ratBuChE (Rattus norvegicus, UniProt Q9JKC1).
T1 construct: BuChE from rat serum or human serum (Sigma Co.); from tissue; host or cells: rat serum
Put plainly: ratBuChE inhibition, modified Ellman's method. The class given is biochemical.

For test [1] the following is noted: Trolox as standard.
Experimental: The skeleton compounds naringenin and apigenin were also evaluated for comparison purposes, and vitamin E analogue Trolox was used as a standard.
The antioxidant potency of target compounds was tested using an oxygen radical absorbance capacity fluorescein (ORAC-FL) assay.
Another test deals with T2, ratAChE (Rattus norvegicus, UniProt P37136).
T2 construct: AChE from 5% rat cortex homogenate or human erythrocytes (Sigma Co.); from tissue; host or cells: 5% rat cortex homogenate
T2 sequence (P37136 32-614): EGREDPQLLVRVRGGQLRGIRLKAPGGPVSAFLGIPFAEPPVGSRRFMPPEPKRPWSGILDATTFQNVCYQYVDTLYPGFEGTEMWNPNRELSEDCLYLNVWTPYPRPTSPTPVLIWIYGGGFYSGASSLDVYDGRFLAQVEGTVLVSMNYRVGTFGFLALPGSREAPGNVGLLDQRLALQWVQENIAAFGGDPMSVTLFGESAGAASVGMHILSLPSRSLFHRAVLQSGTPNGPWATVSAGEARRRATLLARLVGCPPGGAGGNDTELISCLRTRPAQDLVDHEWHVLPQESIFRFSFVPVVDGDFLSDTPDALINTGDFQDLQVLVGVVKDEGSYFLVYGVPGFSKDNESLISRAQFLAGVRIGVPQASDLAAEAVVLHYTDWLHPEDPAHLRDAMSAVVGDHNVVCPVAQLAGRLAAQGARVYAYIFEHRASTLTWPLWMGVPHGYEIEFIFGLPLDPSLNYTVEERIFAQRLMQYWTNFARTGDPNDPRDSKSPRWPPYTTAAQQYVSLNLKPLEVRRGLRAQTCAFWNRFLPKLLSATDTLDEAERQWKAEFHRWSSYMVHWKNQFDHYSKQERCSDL
As to the kind of experiment: biochemical. The conditions noted are these: for SI: Selectivity Index = IC50 (BuChE)/IC50 (AChE), rat enzymes; for IC50: from 5% rat cortex homogenate, read-out: IC50 ± SD ratAChE.

T1 sequence (Q9JKC1 24-597): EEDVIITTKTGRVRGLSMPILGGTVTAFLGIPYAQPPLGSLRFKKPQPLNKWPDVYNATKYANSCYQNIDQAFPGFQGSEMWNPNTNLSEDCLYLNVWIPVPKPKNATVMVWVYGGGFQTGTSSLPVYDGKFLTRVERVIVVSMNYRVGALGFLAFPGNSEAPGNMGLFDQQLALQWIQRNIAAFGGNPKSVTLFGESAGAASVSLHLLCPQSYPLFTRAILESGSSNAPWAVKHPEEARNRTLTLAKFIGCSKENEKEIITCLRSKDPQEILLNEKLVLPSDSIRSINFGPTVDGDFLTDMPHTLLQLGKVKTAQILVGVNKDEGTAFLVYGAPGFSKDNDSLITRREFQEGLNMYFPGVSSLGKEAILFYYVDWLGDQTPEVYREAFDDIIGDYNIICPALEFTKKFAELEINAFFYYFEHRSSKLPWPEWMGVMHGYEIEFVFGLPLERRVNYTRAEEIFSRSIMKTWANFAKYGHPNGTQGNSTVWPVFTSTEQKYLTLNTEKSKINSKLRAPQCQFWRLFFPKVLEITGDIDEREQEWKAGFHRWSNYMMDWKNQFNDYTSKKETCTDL
Experimental for ratAChE: (§1) The AChE and BuChE inhibitory activities of the synthesised compounds were evaluated using the Ellman assay with slight modification. AChE from 5% rat cortex homogenate or human erythrocytes (Sigma Co.). BuChE from rat serum or human serum (Sigma Co.).
Experimental for ratBuChE: as §1

For the compound `CCN(CCCCCCOc1ccc(-c2cc(=O)c3c(O)cc(OCCCCCCN(CC)Cc4ccccc4)cc3o2)cc1)Cc1ccccc1` [Compound 10r, 7-((6-(benzyl(ethyl)amino)hexyl)oxy)-2–(4-((6-(benzyl(ethyl)amino)hexyl)oxy)phenyl)-5-hydroxy-4H-chromen-4-one], the IC50 on ratBuChE was determined as 14.1 ± 0.22 µM; on ratAChE, 1.7 ± 0.21 µM. Further, the ORAC in test [1] is 1.2 ± 0.04 μM of Trolox equivalent/μM of tested compound. This compound also gave an SI at ratAChE of 8.3.

As to `CCN(CCCCOc1cc(O)c2c(c1)OC(c1ccc(O)cc1)CC2=O)Cc1ccccc1` (stereo not shown) [Compound 5c, 7–(4-(benzyl(ethyl)amino)butoxy)-5-hydroxy-2–(4-hydroxyphenyl)chroman-4-one], the IC50 on ratBuChE worked out at 22.6 ± 0.23 µM; on ratAChE it was 3.9 ± 0.44 µM. Further, the ORAC in test [1] is recorded as 2.3 ± 0.02 μM of Trolox equivalent/μM of tested compound. The compound further had an SI at ratAChE of 5.8.

Take `O=c1cc(-c2ccc(OCCCCN3CCC(Cc4ccccc4)CC3)cc2)oc2cc(OCCCCN3CCC(Cc4ccccc4)CC3)cc(O)c12` [Compound 10j, 7–(4-(4-Benzylpiperidin-1-yl)butoxy)-2–(4–(4-(4-benzylpiperidin-1-yl)butoxy)phenyl)-5-hydroxy-4H-chromen-4-one]: on ratBuChE, half-maximal inhibition (IC50) was put at 15.7 ± 0.24 µM. Also, the ORAC in test [1] is on record as 1.2 ± 0.03 μM of Trolox equivalent/μM of tested compound. On ratAChE, the SI was determined as 8.7 and the IC50 was 1.8 ± 0.04 µM.

As to `O=c1cc(-c2ccc(OCCCN3CCc4ccccc4C3)cc2)oc2cc(OCCCN3CCc4ccccc4C3)cc(O)c12` [Compound 10a, 7–(3-(3,4-dihydroisoquinolin-2(1H)-yl)propoxy)-2–(4-(3–(3,4-dihydroisoquinolin-2(1H)-yl)propoxy)phenyl)-5-hydroxy-4H-chromen-4-one], the IC50 on ratBuChE came out at 16.8 ± 0.36 µM; on ratAChE, 8.1 ± 0.27 µM. In test [1], the ORAC is listed as 1.1 ± 0.01 μM of Trolox equivalent/μM of tested compound. This compound also had an SI at ratAChE of 2.1.

For `O=C1CC(c2ccc(OCCCN3CCc4ccccc4C3)cc2)Oc2cc(OCCCN3CCc4ccccc4C3)cc(O)c21` (stereo not shown) [Compound 7a, 7–(3-(3,4-dihydroisoquinolin-2(1H)-yl)propoxy)-2–(4-(3–(3,4-dihydroisoquinolin-2(1H)-yl)propoxy)phenyl)-5-hydroxychroman-4-one], the IC50 was determined as 20.2 ± 0.23 µM at ratBuChE and 10.1 ± 0.41 µM at ratAChE. In test [1], the ORAC was 1.1 ± 0.02 μM of Trolox equivalent/μM of tested compound. Moreover, the SI on ratAChE turned out to be 2.0.

Turning to `CC1CC(C)CN(CCCCCCOc2ccc(-c3cc(=O)c4c(O)cc(OCCCCCCN5CC(C)CC(C)C5)cc4o3)cc2)C1` (stereo not shown) [Compound 10v, 7-((6–(3,5-dimethylpiperidin-1-yl)hexyl)oxy)-2–(4-((6–(3,5-dimethylpiperidin-1-yl)hexyl)oxy)phenyl)-5-hydroxy-4H-chromen-4-one], the IC50 against ratBuChE turned out to be 14.8 ± 0.29 µM. Further, the ORAC in test [1] is recorded as 1.3 ± 0.03 μM of Trolox equivalent/μM of tested compound. At ratAChE, the SI was found to be 1.8 and the half-maximal inhibitory concentration (IC50) is 8.1 ± 0.49 µM.

On ratBuChE, `O=c1cc(-c2ccc(OCCCCCCN3CCC(CCCc4ccccc4)CC3)cc2)oc2cc(OCCCCCCN3CCC(CCCc4ccccc4)CC3)cc(O)c12` [Compound 10u, 5-hydroxy-7-((6–(4-(3-phenylpropyl)piperidin-1-yl)hexyl)oxy)-2–(4-((6–(4–(3-phenylpropyl)piperidin-1-yl)hexyl)oxy)phenyl)-4H-chromen-4-one] returned an IC50 of 17.2 ± 0.45 µM. Further, the ORAC in test [1] is recorded as 1.2 ± 0.03 μM of Trolox equivalent/μM of tested compound. Moreover, at ratAChE, the SI is recorded as 2.7 and the IC50 came to 6.3 ± 0.21 µM.

Regarding `O=C1CC(c2ccc(OCCCCN3CCC(Cc4ccccc4)CC3)cc2)Oc2cc(OCCCCN3CCC(Cc4ccccc4)CC3)cc(O)c21` (stereo not shown) [Compound 7j], in test [1], the ORAC is given as 1.1 ± 0.03 μM of Trolox equivalent/μM of tested compound. Also, on ratAChE, the SI worked out at 11.2 and the half-inhibitory concentration (IC50) was 1.3 µM.
